Consider 8 compounds from patent EP0106571A2, “Prophylactic substance or composition” (priority 1982, dated 1984).

SMILES strings stand for the structures.

What all share (assay type): cell-based
Experiment [1] has as its system Human osteogenic sarcoma cells. In words: Colony growth over three weeks with fatty acids or prostaglandins, Amidoschwarz stain. On the procedure:
Human osteogenic sarcoma cells were seeded into 50 ml Greiner plastic flasks and maintained exactly as explained in Example 4.
At the end of three weeks the culture flasks were stained with a 0.1% Amidoschwarz stain solution.

In a further experiment the test system is human cancer cells. In words: Proliferation suppressive effect of prostaglandins (statement, no method). The settings on record: compared with PGEI; no conditions given.
The test system of experiment [2] is MG63 Human osteogenic sarcoma cells. In words: Colony formation after 7 days with two additions of fatty acid. The settings on record: for proliferation suppressive action: higher levels of supplementation, 80 and 100µg/ml. The procedure: MG63 Human osteogenic sarcoma cells were seeded in culture flasks as described in Examples 4 and 5. 2,000 cells were seeded in each flask. Duplicate sets of flasks were used for each of the fatty acids tested. The following fatty acids dissolved in standard growth medium were added to the cells in culture, after allowing 2 days for cell attachment, and again after a further 3 days. Each culture therefore had only 2 additions of the relevant fatty acid. The cells were stained and examined at the end of 7 days in culture: • 1. Culture medium only - control. • 2. 5, 10, 20, 40, 60, 80 and 100µg oleic acid respectively /ml culture medium. […] 5; 10, 20, 40, 60, 80 and 100µg LA respectively /ml culture medium. • 4. 5, 10, 20, 40, 60, 80 and […] ALA respectively ./ml culture. medium. • 5. 5, 10, 20, 40, 60, 80 and 100µg/ml AA respectively /ml culture medium. • 6. 5, 10, 20, 40, 60, 80 and 100µg/ml EPA respectively /ml culture medium. • ..7.

[3] abbreviates: 5 µg/ml of medium added every second day.
[4] abbreviates: 20 µg/ml of medium added every second day.

For the compound `CCCCC[C@H](O)/C=C/[C@@H]1[C@@H](CCCCCCC(=O)O)[C@@H](O)C[C@H]1O` [PGF1a], in experiment [1] (setting [3]), the “growth achieved relative to control cultures” value was “about the same growth as the control cultures” and the “growth suppressive effect on the cancer cells in culture (summary)” value (“growth suppressive effect” below) is “no effect at all”. For the same compound, in the experiment with human cancer cells, the “proliferation suppressive effect on human cancer cells” value is recorded as “no effect at all”.
Take `CCCCC/C=C\C/C=C\C/C=C\C/C=C\CCCC(=O)O` [AA, arachidonic acid]: the “growth suppressive effect” value in experiment [1] (setting [4]) is “complete growth suppressive effect”. Besides, the “colonies in supplemented cultures” value in experiment [1] (20 µg/ml of medium added every second day, 500, 1,000 and 2,000 cell density cultures) was “completely devoid of any colonies”. Also, in experiment [2] (dose series 5 to 100 µg/ml, 2 additions), the “suppressive action on proliferation and colony formation” value is “almost equal, progressive, suppressive action”. In addition, in experiment [2] (levels of supplementation above 40 µg/ml culture medium, 2 additions), the “cell growth and colony formation” value is given as “completely suppressed”. For the same compound, the “cells or colonies found on microscopic examination” value in experiment [2] (supplementation levels between 40 and 100 µg/ml) is “Not a single cell or colony of cells could be found”.
`CCCCC/C=C\C/C=C\CCCCCCCC(=O)O` [LA, linoleic acid]: the “growth suppressive effect” value in experiment [1] (setting [4]) was “some growth suppressive effect”. Also, the activity at 20 µg/mL in experiment [1] (Homo sapiens, 504 h, 20 µg/ml of medium added every second day, read-out: growth achieved relative to control cultures) was approximately 75%. Moreover, the proliferation suppressive action result in experiment [2] (2 additions) is listed as “definite proliferation suppressive action”.
For `CC/C=C\C/C=C\C/C=C\CCCCCCCC(=O)O` [ALA, a-linolenic acid, reference compound], the proliferation suppressive action result in experiment [2] (2 additions) was “definite proliferation suppressive action”.
For `CCCCCCCC/C=C\CCCCCCCC(=O)O` [OA, Oleic acid], in experiment [1] (setting [4]), the “growth achieved relative to control cultures” value was “about the same growth as control cultures” and the “growth suppressive effect” value is listed as “no suppressive effect”. Also, the densities of colonies result in experiment [2] (all levels of supplementation between 5 and 100µg/ml, 2 additions, compared with culture medium only) is listed as “equal densities of colonies”.
For the compound `CCCCC[C@H](O)/C=C/[C@H]1C=CC(=O)[C@@H]1CCCCCCC(=O)O` [PGA1], in experiment [1] (setting [3]), the “growth suppressive effect” value was “more pronounced growth suppressive effect”.
For `CCCCC[C@H](O)/C=C/[C@H]1[C@H](O)CC(=O)[C@@H]1CCCCCCC(=O)O` [PGE1, prostaglandin E 1], the “growth suppressive effect” value in experiment [1] (setting [3]) was “more pronounced growth suppressive effect”. Further, the activity at 5 µg/mL in experiment [1] (Homo sapiens, 504 h, 5 µg/ml of medium added every second day, read-out: growth achieved relative to control cultures) is approximately 25%.
Regarding `CCCCC[C@H](O)/C=C/[C@@H]1[C@@H](C/C=C\CCCC(=O)O)[C@@H](O)C[C@H]1O` [PGF2a], the “proliferation suppressive effect on human cancer cells” value in the experiment with human cancer cells is recorded as “no effect at all”.
